In publication PMC6522510 (Nature Communications, 2019):
Where two headings read alike, the source gives them in different places.

How the values were obtained:
CHRF288-11 [1] = experiment: Secondary dose-response HTS, Cell Titer Glo; type: cell-based, human; settings: for EC50: Homo sapiens
CMS [2] = experiment: Secondary dose-response HTS, Cell Titer Glo; type: cell-based, human; settings: Homo sapiens
M07e [3] = experiment: Secondary dose-response HTS, Cell Titer Glo; type: cell-based, human; settings: Homo sapiens, M-07e
ML2 = experiment: Secondary dose-response HTS, Cell Titer Glo; type: cell-based, human; settings: Homo sapiens; secondary high-throughput screen; ML-2; read-out: average effective concentration, ML-2
U937 [4] = experiment: Secondary dose-response HTS, Cell Titer Glo; type: cell-based, human; settings: Homo sapiens, U-937
[5] = system: panel of 8 AML cell lines; experiment: Secondary dose-response HTS, whole panel; type: cell-based, human; settings: secondary HTS (Supplementary Data 2)
MOLM-13 [6] = experiment: Secondary dose-response HTS, Cell Titer Glo; type: cell-based, human; settings: MOLM-13; for EC50: Homo sapiens
[7] = system: MLLr primary AML blast samples; experiment: Ex vivo drug treatment of primary AML blasts on mesenchymal stromal cells; type: cell-based; settings: Homo sapiens; primary blasts on MSC, 96 h, range over patient samples
[8] = system: AMKL primary AML blast samples; experiment: as above; type: cell-based; settings: Homo sapiens; primary blasts on MSC, 96 h
[9] = system: FLT3-ITD+ primary AML blast samples
MV4-11 [10] = experiment: cells; parameters: species or system AML cell lines (8); Secondary HTS, 10-point dose-response in triplicate, Cell Titer Glo viability, four-parameter fit EC50; settings: Homo sapiens, MV4-11, 72 h, read-out: MV4-11
CHRF288-11 [11] = experiment: cells; parameters: species or system AML cell lines (8); Secondary HTS, 10-point dose-response in triplicate, Cell Titer Glo viability, four-parameter fit EC50; settings: 72 h, read-out: CHRF288-11
CMK [12] = experiment: cells; parameters: species or system AML cell lines (8); Secondary HTS, 10-point dose-response in triplicate, Cell Titer Glo viability, four-parameter fit EC50; settings: Homo sapiens, CMK, 72 h, read-out: CMK
M07e [13] = experiment: cells; parameters: species or system AML cell lines (8); Secondary HTS, 10-point dose-response in triplicate, Cell Titer Glo viability, four-parameter fit EC50; settings: M-07e, 72 h, read-out: M07e
ML-2 [14] = experiment: cells; parameters: species or system AML cell lines (8); Secondary HTS, 10-point dose-response in triplicate, Cell Titer Glo viability, four-parameter fit EC50; settings: Homo sapiens, ML-2, 72 h, read-out: ML-2
U937 [15] = experiment: cells; parameters: species or system AML cell lines (8); Secondary HTS, 10-point dose-response in triplicate, Cell Titer Glo viability, four-parameter fit EC50; settings: Homo sapiens, U-937, 72 h, read-out: U937
AML cell lines = experiment: Intracellular drug and phosphorylated metabolites by HPLC with liquid scintillation counting; settings: 2 h, 1 µM, all cell lines evaluated
MV4-11 [16] = experiment: Secondary dose-response HTS, Cell Titer Glo; type: cell-based, human; settings: MV4-11; for EC50: Homo sapiens
CMK [17] = experiment: Secondary dose-response HTS, Cell Titer Glo; type: cell-based, human; settings: Homo sapiens, CMK
CHRF288-11 [18] = type: cell-based; settings: Homo sapiens; 72 h, Cell Titer Glo; read-out: IC50 CHRF288-11
CMS [19] = type: cell-based; settings: Homo sapiens, 72 h, read-out: IC50 CMS
ML-2 [20] = type: cell-based; settings: Homo sapiens, 72 h, Cell Titer Glo
MOLM-13 [21] = type: cell-based; settings: Homo sapiens, 72 h, Cell Titer Glo
MV4-11 [22] = type: cell-based; settings: Homo sapiens, 72 h, Cell Titer Glo
THP-1 = type: cell-based; settings: Homo sapiens, 72 h, Cell Titer Glo
U937 [23] = type: cell-based; settings: Homo sapiens, U-937; 72 h, Cell Titer Glo
[24] = HTS, secondary high-throughput screen, CHRF288-11, read-out: average effective concentration, CHRF288-11
[25] = HTS, secondary high-throughput screen, CMS, read-out: average effective concentration, CMS
[26] = secondary high-throughput screen, M07e, read-out: average effective concentration, M07e
[27] = secondary high-throughput screen, U937, read-out: average effective concentration, U937
[28] = secondary high-throughput screen, read-out: average effective concentration, MOLM-13
[29] = secondary high-throughput screen, read-out: average effective concentration, MV4-11
[30] = secondary high-throughput screen
[31] = secondary high-throughput screen, read-out: average effective concentration, CMK

Row | EC50 (U937 [4]; [27]) | EC50 (MOLM-13 [6]; [28]) | IC50 [8] | IC50 (MOLM-13 [21]) | IC50 (MV4-11 [22]) | IC50 (THP-1) | IC50 (U937 [23]) | EC50 (MV4-11 [16]; [29]) | Compound | EC50 (CHRF288-11 [1]; [24]) | EC50 (CMS [2]; [25]) | EC50 (M07e [3]; [26]) | EC50 (ML2) | active cell lines out of 8 in HTS [5] | IC50 (CHRF288-11 [18]) | IC50 (CMS [19]; Cell Titer Glo) | IC50 (ML-2 [20]) | EC50 (CMK [17]; [31]) | also measured
1 | 1 nM | 1 nM | – | 2.2 nM | 3 nM | 3.2 nM | 2.1 nM | 1 nM | CC(=O)O[C@@]12CO[C@@H]1C[C@H](O)[C@@]1(C)C(=O)[C@H](O)C3=C(C)[C@@H](OC(=O)[C@H](O)[C@@H](NC(=O)OC(C)(C)C)c4ccccc4)C[C@@](O)([C@@H](OC(=O)c4ccccc4)[C@H]21)C3(C)C [Docetaxel, docetaxel, reference compound] | 500 nM | – | 1 nM | – | – | 10.8 nM | – | 1.5 nM | – | EC50 (CMK [17]; read-out: average effective concentration, CMK): 1 nM; EC50 (CMS [2]; HTS, read-out: average effective concentration, CMS): 4.4 nM; IC50 (CMS [19]): 19.9 nM
2 | 460 nM | 370 nM | > 10000 nM | – | – | – | – | 210 nM | C=CCn1c(=O)c2cnc(Nc3ccc(N4CCN(C)CC4)cc3)nc2n1-c1cccc(C(C)(C)O)n1 [MK-1775, reference compound] | 10000 nM | 630 nM | – | 210 nM | 7/8 | – | – | – | 210 nM | –
3 | – | – | – | 3 nM | 2.1 nM | 5.4 nM | 2.5 nM | – | CC(=O)O[C@H]1C(=O)[C@@]2(C)[C@H]([C@H](OC(=O)c3ccccc3)[C@]3(O)C[C@H](OC(=O)[C@H](O)[C@@H](NC(=O)c4ccccc4)c4ccccc4)C(C)=C1C3(C)C)[C@]1(OC(C)=O)CO[C@@H]1C[C@@H]2O [Paclitaxel, paclitaxel] | – | – | – | – | – | 24.9 nM | 25.7 nM | 3.5 nM | – | –
4 | 1 nM | – | 353 nM | – | – | – | – | 8 nM | CC[C@@H]1C(=O)N(C)c2cnc(Nc3ccc(C(=O)N[C@H]4CC[C@H](N5CCN(CC6CC6)CC5)CC4)cc3OC)nc2N1C(C)C [Volasertib, reference compound] | 3200 nM | 1400 nM | – | 1 nM | 7/8 | – | – | – | 15 nM | IC50 [7]: 62 to 482 nM; IC50 [9]: 4.6 to 931 nM
5 | 5 nM | 6 nM | – | – | – | – | – | – | COc1cc(OC)c(/C=C/S(=O)(=O)Cc2ccc(OC)c(NCC(=O)O)c2)c(OC)c1 [rigosertib, reference compound] | 17 nM | 11 nM | – | 15 nM | 7/8 | – | – | – | 3.61 nM | –

Continued, molecule first:

Row | Compound | EC50 (U937 [4]; [27]) | EC50 (MOLM-13 [6]; [28]) | IC50 [8] | IC50 (MOLM-13 [21]) | IC50 (MV4-11 [22]) | IC50 (THP-1) | IC50 (U937 [23]) | EC50 (MV4-11 [16]; [29]) | EC50 (CHRF288-11 [1]; [24]) | EC50 (CMS [2]; [25]) | EC50 (M07e [3]; [26]) | EC50 (ML2) | active cell lines out of 8 in HTS [5] | IC50 (CHRF288-11 [18]) | IC50 (CMS [19]; Cell Titer Glo) | IC50 (ML-2 [20]) | EC50 (CMK [17]; [31]) | also measured
6 | CON(C)C(=O)N1N=C(c2cc(F)ccc2F)S[C@@]1(CCCN)c1ccccc1 [ARRY-520, reference compound] | 1 nM | – | – | – | – | – | – | – | 1 nM | 1 nM | 1 nM | 1 nM | 3/8 | – | – | – | – | –
7 | COc1cc(Nc2ncc3c(n2)-c2ccc(Cl)cc2C(c2c(F)cccc2OC)=NC3)ccc1C(=O)O [Alisertib] | – | 8300 nM | 441 nM | – | – | – | – | – | – | 4000 nM | – | – | 4/8 | – | – | – | – | IC50 [7]: 105 to 4320 nM; IC50 [9]: 8.8 to 3190 nM; EC50 (MV4-11 [10]): > 10000 nM; EC50 (CHRF288-11 [11]): > 10000 nM; EC50 (CMK [12]): 2.1 nM; EC50 (M07e [13]): > 10000 nM; EC50 (ML-2 [14]): > 10000 nM; EC50 (U937 [15]): > 10000 nM
8 | Nc1ccn([C@@H]2O[C@H](COP(=O)(O)OP(=O)(O)OP(=O)(O)O)[C@@H](O)[C@@H]2O)c(=O)n1 [Ara-CTP, cytarabine triphosphate] | – | – | – | – | – | – | – | – | – | – | – | – | – | – | – | – | – | share of the total intracellular accumulation (AML cell lines): 52–65%
9 | Nc1nc(Cl)nc2c1ncn2[C@@H]1O[C@H](CO)[C@@H](O)[C@@H]1F [Clofarabine, clofarabine, reference compound] | 88 nM | 47 nM | – | 37 nM | 71 nM | 90 nM | 56 nM | – | – | 18 nM | 13 nM | – | – | 332 nM | 80 nM | 173 nM | – | EC50 (MOLM-13 [6]; secondary HTS, 72 h, average of triplicate, read-out: EC50 MOLM-13): 50 nM; EC50 (MV4-11 [16]; secondary HTS, 72 h, average of triplicate, read-out: EC50 MV4-11): 150 nM; EC50 (CHRF288-11 [1]; secondary HTS, 72 h, average of triplicate, read-out: EC50 CHRF288-11): 370 nM; EC50 (CMK [17]; secondary HTS, 72 h, average of triplicate, read-out: EC50 CMK): 5 nM; EC50 (CMS [2]; secondary HTS, 72 h, average of triplicate, read-out: EC50 CMS): 20 nM; EC50 (M07e [3]; secondary HTS, 72 h, average of triplicate, read-out: EC50 M07e): 10 nM; EC50 (U937 [4]; secondary HTS, 72 h, average of triplicate, read-out: EC50 U937): 90 nM
10 | Nc1nc(F)nc2c1ncn2[C@@H]1O[C@H](CO)[C@@H](O)[C@@H]1O [Fludarabine, fludarabine, reference compound] | > 10000 nM | – | – | 1750 nM | > 15000 nM | 4120 nM | 31 nM | – | – | 130 nM | > 10000 nM | > 10000 nM | – | > 35000 nM | 65 nM | 5580 nM | 8100 nM | average effective concentration, MOLM-13 (MOLM-13 [6]; [30]): Inactive; average effective concentration, MV4-11 (MV4-11 [16]; [30]): Inactive; average effective concentration, CHRF288-11 (CHRF288-11 [1]; secondary high-throughput screen, CHRF288-11): Inactive
